Measurements from patent US4389394A, “Methods for reducing dental caries” (Talres Development (N.A.) N.V., priority 1978, dated 1983).
“Also recorded” adds a separate entry of the source.

What was measured:
S. mutans [1] = test: (C) Further tests on pH reduction; type: cell-based, Streptococcus mutans; details: for effect on acid production / pH: statement in words, pooled 2, 3 and 4 hours
Description: (§1) Plain aqueous solutions were used and also solutions containing amino acids (protein hydrolysate) 1% w/v to approximate the buffering effect of natural saliva. Control experiments were effected using no saccharide in order to illustrate the endogenous metabolism of the organism. Each experiment was quadruplicated and was run at 37° C. The pH was measured at 0, 0.5, 1, 1.5,2, 3 and 4 hours.
Twelve sets of tests were carried out in the same way as described above at (A) but using solutions which were 0.055 molar in the respective chlorodeoxy derivative.
Solutions of the following were employed:
(i) Saline, negative control for endogenous metabolism
(ii) Sucrose, positive control
(iii) 6,1',6'-trichloro-6,1',6'-trideoxysucrose, compound no. 7.
(iv) Compound no. 7 plus sucrose.
(v) 1',6'-dichloro-1',6'-dideoxysucrose, compound no. 4
(vi) Compound no. 4 plus sucrose
(vii) 4,1',6'-trichloro-4,1',6'-trideoxygalactosucrose, Compound no. 5.
(viii) Compound no. 5 plus sucrose
(ix) 4,6,6'-trichloro-4,6,6'-trideoxygalactosucrose, Compound no. 6
(x) Compound no. 6 plus sucrose
(xi) 1'-chloro-1'-deoxysucrose, compound no. 1
(xii) Compound no. 1 plus sucrose
The acid production was monitored as before.

S. mutans [2] = test: Scanning electron microscopy of glass with adherent cells; type: cell-based, Streptococcus mutans; details: sucrose medium; qualitative
[3] = test system: Streptococcus mutans NCTC 10832; test: (A) Effect on reduction of pH by Streptococcus mutans; type: cell-based; details: for pH: no amino acids, 0.05 molar each saccharide, 37° C
Source text: Mouth flora such as S. mutans cause dental caries by producing acid which erodes the tooth enamel. The cells exude a polysaccharide which firmly adheres them to the tooth surfaces as plaque, thus enhancing the local erosion by the acid. The effect of chlorodeoxysucroses on acid production by S. mutans in sucrose solutions was studied in comparison with the effect produced by xylitol, an agent proposed as a caries preventative.
as §1

[4] = test system: germ-free Liverpool hooded rats inoculated orally with Streptococcus mutans NCT 10823; test: (E) Gnotobiotic rat caries model; type: in vivo; details: 21 days; diet 33% skim milk, 67% carbohydrate; S. mutans NCT 10823; statement in words
Description: Studies were carried out on the effect of chlorodeoxysucroses on cariogenic food products, using 4,1',6'-trichloro-4,1',6'-trideoxygalactosucrose as the chlorodeoxysucrose. Cariogenicity was examined using the gnotobiotic rat caries model (see for example Drucker and Green, Arch. Oral Biol. Vol 23 pp 183-187).
The experiment involved the use of germ-free Liverpool hooded rats inoculated orally with Streptococcus mutans NCT 10823 (a caries-producing organism). The rats were fed a diet consisting essentially of 33% by weight skim milk and 67% by weight carbohydrate. The carbohydrate consisted of (i) starch, or (ii) sucrose, or (iii) starch together with sufficient of the chlorodeoxysucrose to give a sweetness as perceived by a human of the same order as that of the sucrose. After 21 days, the rats were sacrificed and the lower jaw lesions were counted to give a caries score for each rat (see Konig, Marthaler and Muhlemann, Dt. Zahn-Mund-u. Kieferheilk Vol. 29, 99-127).

[5] = West German Offenlegungsschrift No. 2700036; cited from earlier work
S. mutans [6] = test: (D) Further tests on adherence to teeth; type: cell-based, Streptococcus mutans; details: glass slide; 0.055 molar; Duncan procedure
Description: (§2) The extent to which cells of S. mutans adhere to teeth was investigated using a recognized model system. Solutions of the same substances as in (A) were made up, and the degree of deposition of suspended cells on to glass was studied using a "Magiscan" image analyser (Talyer et al., 1978 Praktischen Metallographie, Sonderbande 8: 433-442).
While recording the pH during the tests of (C), the adherence was monitored in the same way as in (B). The percentage coverage of a glass slide was determined at 0.5 and 4 hours for each solution, and the results treated by the Duncan procedure.

S. mutans [7] = test: (B) Adherence to teeth: deposition of suspended cells on to glass (Magiscan image analyser); type: cell-based, Streptococcus mutans
Source text: as §2
Each reading is the mean of 40 determinations.

[8] = Acute oral toxicity in the rat; details: in vivo, per os, maximum dose practically possible
Source text: For example, in the rat the compound no.

[9] = no amino acid, mean of 40 determinations

**Q.** Which “Mean pH” value (S. mutans [1]; 0.055 molar chlorodeoxy derivative, pooled data for 2, 3 and 4 hours, Duncan procedure) does the source give for `OC[C@H]1O[C@H](O[C@]2(CCl)O[C@H](CCl)[C@@H](O)[C@@H]2O)[C@H](O)[C@@H](O)[C@H]1Cl` [Compound no. 5, 4-chloro-4-deoxy-α-D-galactopyranosyl-1,6-dichloro-1,6-dideoxy-β-D-fructofuranoside] here?
**A.** 6.82

**Q.** What about the “effect on acid production / pH” value (S. mutans [1]) of the same compound?
**A.** give a better result than the negative control, saline

**Q.** What about the “effect on acid production / pH” value (S. mutans [1]; listed as (vii)) of the same compound?
**A.** one pH unit less than that of solution (ii)

**Q.** What about the “effect on acid production / pH” value (S. mutans [1]; listed as no. 5) of the same compound?
**A.** especially effective

**Q.** And the “extracellular coating and size of clumps of adherent cells” value (S. mutans [2])?
**A.** found to reduce the extracellular coating and the size of the clumps

**Q.** What about the pH ([3]; 0 h) of the same compound?
**A.** 5.88

**Q.** And the pH ([3]; 0.5 h)?
**A.** 5.67

**Q.** What about the pH ([3]; 1.0 h) of the same compound?
**A.** 5.69

**Q.** What about the pH ([3]; 1.5 h) of the same compound?
**A.** 5.69

**Q.** And the pH ([3]; 2.0 h)?
**A.** 5.61

**Q.** And the pH ([3]; 3.0 h)?
**A.** 5.67

**Q.** What about the pH ([3]; 4.0 h) of the same compound?
**A.** 5.63

**Q.** What about the “Mean pH” value ([3]; Duncan Procedure sub-sets, amino acids where named in the solution) of the same compound?
**A.** 5.64

**Q.** What about the “effect on acid production” value ([3]; statement in words, listed as TGS) of the same compound?
**A.** always had a favourable effect which was statistically significant; also recorded: reduced the amount of acid produced; also recorded: on its own had a favourable effect against the endogenous metabolism of the micro-organism

**Q.** And the “cariogenicity (caries score)” value [4]?
**A.** appeared to be decreasing the cariogenicity of the starch

**Q.** And the “sweetness relative to sucrose” value [5]?
**A.** many times sweeter than sucrose

**Q.** What about the “% coverage after 0.5 hours” value (S. mutans [6]) of the same compound?
**A.** 41.4%

**Q.** And the “% coverage after 4 hours” value (S. mutans [6])?
**A.** 58.4%

**Q.** What about the degree of adhesion (S. mutans [7]; Mann Whitney U-test, statement in words, listed as TGS) of the same compound?
**A.** reduces the degree of adhesion significantly; also recorded: the reduction is greater than that of xylitol

**Q.** What about the “Coverage (%) after 0.5 h” value (S. mutans [7]; [9]) of the same compound?
**A.** 30.42%

**Q.** And the “Coverage (%) after 4.0 h” value (S. mutans [7]; [9])?
**A.** 64.81%

**Q.** And the LD50 [8]?
**A.** > 16000 mg/kg
